The subject of one assay is macrophages of humans. Particulars: cited from earlier work.
The test system of a further assay is macrophages of mice. As to conditions: cited from earlier work.
For assay [1], the system named is interferon-treated murine peritoneal macrophages. As to the kind of experiment: Nitrite/nitrate (nitrogen monoxide) release on stimulation of interferon-treated murine peritoneal macrophages. The format is cell-based. Particulars: mouse system. The protocol: The lipopeptide is prepared from Mycoplasma fermentans (for example PG18). The isolation of the lipopeptide from mycoplasma is carried out by the following known separation procedure (Mühlradt et al. in Biochemistry, 35 (1996) 7781-7786). • (i) Delipidation of the mycoplasma using chloroform/methanol. • (ii) Extraction of the delipidated mycoplasma using hot 25 mM octyl glucoside. • (iii) Dialysis of the detergent extract. • (iv) Concentration of the extract by lyophilisation. • (v) Reversed-phase chromatography on a C8 column using a water/2-propanol gradient. Detection of the biological activity is effected by measuring nitrite and nitrate as the secondary products of nitrogen monoxide, which is liberated on stimulation of interferon-treated murine peritoneal macrophages.
Immun., 59 (1991) 3962-3968 and Feng & Lo in Infect. Immun., 62 (1994) 3916-3921. Its half-maximum effective concentration (Max/2) is 20 pg/ml or 10^−11 M in the mouse system. That effective concentration is lower by a factor of from 10^2 to 10^3 than the corresponding known concentrations of similar natural or synthetic lipopeptides.

For the substance “Dhc-GNN DES NIS FKE K: S-(2,3-dihydroxypropyl)-cysteine peptide from Mycoplasma fermentans with two ester-bonded long-chain fatty acids (C16:0 and C18:0/C18:1)”, the “release of cytokines and prostaglandins from macrophages” value in the assay with macrophages of humans was “stimulating macrophages of mice and humans to release cytokines and prostaglandins”; in the assay with macrophages of mice, “stimulating macrophages of mice and humans to release cytokines and prostaglandins”. Moreover, the “half-maximum effective concentration (Max/2)” value in assay [1] worked out at 20 pg/mL. The EC50 in assay [1] (read-out: half-maximum effective concentration (Max/2)) stood at 10 pM.

These data come from patent US7435790B2, “Dihydroxypropyl cysteine peptide and agent containing this peptide” (Helmholtz-Zentrum fuer Infektionsforschung GmbH, priority 1996, dated 2008).
